# Laboratory results taken from US8124634B2, “CB1 receptor modulators” (7TM Pharma A/S, priority 2006, dated 2012).
# Biological target: T1, human CB1 receptor (Homo sapiens, UniProt P21554)
# T1 construct: expressed in transfected cells; membranes
# Experiment: Cannabinoid Receptor-1 functional assay: inhibition of CP55940-induced [35S]GTPγS binding to membranes of CHO-K1 cells expressing human CB1
# Assay type: biochemical
# Settings: 3 nM CP55940, hCB1 membranes, [35S]GTPγS SPA; read-out: IC50 value for antagonizing a CB1 receptor agonist
# From the text: Transfection and Cell Culture—The cDNA encoding the human CB1 (Cannabinoid Receptor-1) receptor (GenBank accession number NM_016083) was cloned from a human adipose tissue cDNA library and cloned into the eukaryotic expression vector pcDNA3.1 (Invitrogen).
# Chinese Hamster Ovary cells (CHO-K1) stably expressing recombinant human CB1 were generated by transfecting the plasmid containing the coding sequence of the human CB1 receptor in CHO-K1 cells, using lipofectamin, according to the manufacturer instructions. Resistant clones were selected in the presence of 600 μg/ml G418 (Life technology). Stably transfected CHO-K1 cells were maintained in Ham's F-12 culture medium (Invitrogen), supplemented with 10% fetal calf serum (Invitrogen), 100 U/ml penicillin, 100 μg/ml streptomycin (Life Technology), and 600 μg/ml G418.
# Cannabinoid Receptor-1 Functional Assay.
# Functional activities of the above examples of compounds of the invention were assessed in vitro by measuring their ability to inhibit CP55940-induced [^35S]GTPγS binding to membranes prepared from CHO-K1 cells expressing the human CB1 receptor (described in Transfection and Cell Culture). CP55940 is a well known non-selective CB1 and CB2 receptor agonist (e.g Felder et al., 1995, Molecular Pharmacology, (48) 443-50). Membranes were prepared by a standard procedure. Briefly, cells were harvested using 10 mM EDTA and collected by centrifugation. Pelleted cells were homogenized in ice-cold 20 mM Hepes (pH 7.4),10 mM EDTA and protease inhibitors (Complete protease inhibitor cocktail tablet, Roche) using an Ultra Turrax Homogenizer. The homogenate was centrifuged at 14 000 rpm for 45 min. at 4° C. The resultant pellet was resuspended in the same buffer but with only 0.1 mM EDTA and was again centrifuged at 14 000 rpm for 45 min. at 4° C. The resulting pellet (membranes) was resuspended in 20 mM Hepes (pH 7.4), 0.1 mM EDTA, 2 mM MgCl2 and protease inhibitors and protein concentration was determined by Micro BCA Protein Assay Reagent Kit (Pierce Biotechnology) according to the manufacturer instructions. The [^35S]GYPγS SPA (Scintillation Proximity Assay) binding assay was performed by incubating 5 μg/well hCB1-membranes with 1 nM [^35S]GYPγS (Perkin Elmer—NEG 030H) in the presence of 3 nM of CP55940 and various concentrations of the test compounds at room temperature for 1 hr in 96-well microtiter plates. 0.4 mg/well SPA beads (PVT-WGA; RPNQ0001 Amersham Pharmacia Biotech) were then added and the incubation continued for further 30 min. on an orbital shaker. The assay buffer contained 50 mM HEPES (pH 7.5), 50 mM NaCl, 2.5 mM MgCl2, 0.1% BSA, 1 μM GDP and 100 μg/ml Saponin. Microtiter plates were centrifuged at 1500 rpm for 5 min. and radioactivity was read immediately using a Topcounter (PerkinElmer Life Sciences). Data were analyzed and IC50 values determined by non-linear regression using the Prism software (GraphPad Software, San Diego).
# T1 sequence (P21554 whole entry): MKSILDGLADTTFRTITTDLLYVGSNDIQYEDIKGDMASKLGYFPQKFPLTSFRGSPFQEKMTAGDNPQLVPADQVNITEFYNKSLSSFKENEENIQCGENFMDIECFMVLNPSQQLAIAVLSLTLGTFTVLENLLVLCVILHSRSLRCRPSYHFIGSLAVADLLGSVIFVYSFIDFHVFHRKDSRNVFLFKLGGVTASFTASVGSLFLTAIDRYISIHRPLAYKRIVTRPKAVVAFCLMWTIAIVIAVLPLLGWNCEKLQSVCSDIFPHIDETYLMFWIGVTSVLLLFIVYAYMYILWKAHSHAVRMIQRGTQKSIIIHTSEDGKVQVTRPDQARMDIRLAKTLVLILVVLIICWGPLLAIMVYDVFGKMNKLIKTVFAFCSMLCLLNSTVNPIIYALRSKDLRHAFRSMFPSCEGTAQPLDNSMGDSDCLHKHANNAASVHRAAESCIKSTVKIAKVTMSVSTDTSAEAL
row,IC50 [nM],Structure (SMILES)
1,< 300,"C[C@@H](NC(=O)c1nn(-c2ccccc2Cl)c(-c2ccc(Cl)cc2)c1OCC(=O)O)c1ccc(C(F)(F)F)cc1 [Compound [1.3], {1-(2-Chloro-phenyl)-5-(4-chloro-phenyl)-3-[(R)-1-(4-trifluoromethyl-phenyl)-ethylcarbamoyl]-1H-pyrazol-4-yloxy}-acetic acid]"
2,< 300,"C[C@H](c1ccc(C(F)(F)F)cc1)N(C)C(=O)c1nn(-c2ccccc2Cl)c(-c2ccc(Cl)cc2)c1CC(=O)O [Compound [1.7], (1-(2-Chloro-phenyl)-5-(4-chloro-phenyl)-3-{methyl-[(R)-1-(4-trifluoromethyl-phenyl)-ethyl]-carbamoyl}-1H-pyrazol-4-yl)-acetic acid]"
3,< 300,"CC(C(=O)O)c1c(C(=O)N(C)[C@H](C)c2ccc(C(F)(F)F)cc2)nn(-c2ccccc2Cl)c1-c1ccc(Cl)cc1 (stereo partly drawn) [Compound [1.11], 2-{1-(2-Chloro-phenyl)-5-(4-chloro-phenyl)-3-{methyl-[(R)-1-(4-trifluoromethyl-phenyl)-ethyl]-carbamoyl}-1H-pyrazol-4-yl}-propionic acid]"
4,< 300,"C[C@H](c1ccc(C(F)(F)F)cc1)N(C)C(=O)c1nn(-c2ccccc2Cl)c(-c2ccc(Cl)cc2)c1C(O)C(=O)O (stereo partly drawn) [Compound [1.12], (1-(2-Chloro-phenyl)-5-(4-chloro-phenyl)-3-{methyl-[(R)-1-(4-trifluoromethyl-phenyl)-ethyl]-carbamoyl}-1H-pyrazol-4-yl)-2-hydroxyacetic acid]"
5,< 300,"C[C@@H](NC(=O)c1nn(-c2ccccc2Cl)c(-c2ccc(Cl)cc2)c1OCc1nnn[nH]1)c1ccc(C(F)(F)F)cc1 [Compound [3.1], 1-(2-Chloro-phenyl)-5-(4-chloro-phenyl)-4-(1H-tetrazol-5-ylmethoxy)-1H-pyrazole-3-carboxylic acid [(R)-1-(4-trifluoromethyl-phenyl)-ethyl]-amide]"
6,300 to 3000,"C[C@H](Oc1c(C(=O)N[C@H](C)c2ccc(Br)cc2)nn(-c2ccccc2Cl)c1-c1ccc(Cl)cc1)C(=O)O [[1.2], (S)-2-[3-[(R)-1-(4-Bromo-phenyl)-ethylcarbamoyl]-1-(2-chloro-phenyl)-5-(4-chloro-phenyl)-1H-pyrazol-4-yloxy]-propionic acid]"
7,< 300,"C[C@@H](Oc1c(C(=O)N[C@H](C)c2ccc(Br)cc2)nn(-c2ccccc2Cl)c1-c1ccc(Cl)cc1)C(=O)O [[1.4], (R)-2-[3-[(R)-1-(4-Bromo-phenyl)-ethylcarbamoyl]-1-(2-chloro-phenyl)-5-(4-chloro-phenyl)-1H-pyrazol-4-yloxy]-propionic acid]"
8,< 300,"C[C@@H](NC(=O)c1nn(-c2ccccc2Cl)c(-c2ccc(Cl)cc2)c1CC(=O)O)c1ccc(C(F)(F)F)cc1 [[1.5], {1-(2-Chloro-phenyl)-5-(4-chloro-phenyl)-3-[(R)-1-(4-trifluoromethyl-phenyl)-ethylcarbamoyl]-1H-pyrazol-4-yl}-acetic acid]"
9,< 300,"C[C@@H](NC(=O)c1nn(-c2ccccc2Cl)c(-c2ccc(Cl)cc2)c1CC(=O)O)c1ccc(Br)cc1 [[1.6], [3-[(R)-1-(4-Bromo-phenyl)-ethylcarbamoyl]-1-(2-chloro-phenyl)-5-(4-chloro-phenyl)-1H-pyrazol-4-yl]-acetic acid]"
10,< 300,"C[C@@H](NC(=O)c1nn(-c2ccccc2Cl)c(-c2ccc(Cl)cc2)c1Cc1nn[nH]n1)c1ccc(C(F)(F)F)cc1 [[2.6], 5-(4-Chloro-phenyl)-1-(2-chloro-phenyl)-4-(2H-tetrazol-5-ylmethyl)-1H-pyrazole-3-carboxylic acid [(R)-1-(4-trifluoromethyl-phenyl)-ethyl]-amide]"

# More lines, now with the values behind:
row,Structure (SMILES),IC50 [nM]
1,"CC(C)(NC(=O)c1nn(-c2ccccc2Cl)c(-c2ccc(Cl)cc2)c1CC(=O)O)c1ccc(F)cc1 [Compound [1.1], {1-(2-Chloro-phenyl)-5-(4-chloro-phenyl)-3-[1-(4-fluoro-phenyl)-1-methyl-ethylcarbamoyl]-1H-pyrazol-4-yl}-acetic acid]",< 300
2,"CC(NC(=O)c1nn(-c2ccccc2Cl)c(-c2ccc(Cl)cc2)c1Cc1nnn[nH]1)c1ccc(Br)cc1 (centres unmarked) [Compound [2.1], 1-(2-Chloro-phenyl)-5-(4-chloro-phenyl)-4-(1H-tetrazol-5-ylmethyl)-1H-pyrazole-3-carboxylic acid [1-(4-bromo-phenyl)-ethyl]-amide]",< 300
3,"CC(c1ccc(S(C)(=O)=O)cc1)N(C)C(=O)c1nn(-c2ccccc2Cl)c(-c2ccc(Cl)cc2)c1CC(=O)O (centres unmarked) [[1.8], (1-(2-Chloro-phenyl)-5-(4-chloro-phenyl)-3-{methyl-[1-(4-methylsufonyl-phenyl)-ethyl]-carbamoyl}-1H-pyrazol-4-yl)-acetic acid]",300 to 3000
4,"C[C@H](c1ccc(OC(F)(F)F)cc1)N(C)C(=O)c1nn(-c2ccccc2Cl)c(-c2ccc(Cl)cc2)c1CC(=O)O [[1.9], (1-(2-Chloro-phenyl)-5-(4-chloro-phenyl)-3-{methyl-[(R)-1-(4-trifluoromethoxy-phenyl)-ethyl]-carbamoyl}-1H-pyrazol-4-yl)-acetic acid]",< 300
5,"CC(C)(Cc1ccccc1)NC(=O)c1nn(-c2ccccc2Cl)c(-c2ccc(Cl)cc2)c1Cc1nnn[nH]1 [[2.2], 1-(2-Chloro-phenyl)-5-(4-chloro-phenyl)-4-(1H-tetrazol-5-ylmethyl)-1H-pyrazole-3-carboxylic acid (1,1-dimethyl-2-phenyl-ethyl)-amide]",< 300
6,"C[C@@H](NC(=O)c1nn(-c2ccccc2Cl)c(-c2ccc(Cl)cc2)c1Cc1nn[nH]n1)c1ccc(Br)cc1 [[2.3], 1-(2-Chloro-phenyl)-5-(4-chloro-phenyl)-4-(1H-tetrazol-5-ylmethyl)-1H-pyrazole-3-carboxylic acid [(R)-1-(4-bromo-phenyl)-ethyl]-amide]",< 300
7,"C[C@H](NC(=O)c1nn(-c2ccccc2Cl)c(-c2ccc(Cl)cc2)c1Cc1nnn[nH]1)c1ccc(Br)cc1 [[2.4], 1-(2-Chloro-phenyl)-5-(4-chloro-phenyl)-4-(1H-tetrazol-5-ylmethyl)-1H-pyrazole-3-carboxylic acid [(S)-1-(4-bromo-phenyl)-ethyl]-amide]",300 to 3000
8,"CC(C)(Cc1ccc(F)cc1)NC(=O)c1nn(-c2ccccc2Cl)c(-c2ccc(Cl)cc2)c1Cc1nn[nH]n1 [[2.5], 5-(4-Chloro-phenyl)-1-(2-chloro-phenyl)-4-(2H-tetrazol-5-ylmethyl)-1H-pyrazole-3-carboxylic acid [2-(4-fluoro-phenyl)-1,1-dimethyl-ethyl]-amide]",< 300
9,"CC(C)(NC(=O)c1nn(-c2ccccc2Cl)c(-c2ccc(Cl)cc2)c1Cc1nnn[nH]1)c1ccc(F)cc1 [[2.7], 1-(2-Chloro-phenyl)-5-(4-chloro-phenyl)-4-(1H-tetrazol-5-ylmethyl)-1H-pyrazole-3-carboxylic acid [1-(4-fluoro-phenyl)-1-methyl-ethyl]-amide]",300 to 3000
10,"C[C@@H](NC(=O)c1nn(-c2ccccc2Cl)c(-c2ccc(Cl)cc2)c1Cc1nnn[nH]1)c1ccc(F)cc1 [[2.8], 1-(2-Chloro-phenyl)-5-(4-chloro-phenyl)-4-(1H-tetrazol-5-ylmethyl)-1H-pyrazole-3-carboxylic acid [(R)-1-(4-fluoro-phenyl)-ethyl]-amide]",< 300
11,"C[C@@H](NC(=O)c1nn(-c2ccccc2Cl)c(-c2ccc(Cl)cc2)c1Cc1nnn[nH]1)c1ccc(Cl)cc1 [[2.9], 1-(2-Chloro-phenyl)-5-(4-chloro-phenyl)-4-(1H-tetrazol-5-ylmethyl)-1H-pyrazole-3-carboxylic acid [(R)-1-(4-chloro-phenyl)-ethyl]-amide]",< 300
12,"CC(NC(=O)c1nn(-c2ccccc2Cl)c(-c2ccc(Cl)cc2)c1Cc1nnn[nH]1)c1ccc(C(F)(F)F)c(F)c1 (centres unmarked) [[2.10], 5-(4-Chloro-phenyl)-1-(2-chloro-phenyl)-4-(1H-tetrazol-5-ylmethyl)-1H-pyrazole-3-carboxylic acid [1-(3-fluoro-4-trifluoromethyl-phenyl)-ethyl]-amide]",< 300
13,"CCC(NC(=O)c1nn(-c2ccccc2Cl)c(-c2ccc(Cl)cc2)c1Cc1nnn[nH]1)c1ccc(Br)cc1 (centres unmarked) [[2.11], 1-(2-Chloro-phenyl)-5-(4-chloro-phenyl)-4-(1H-tetrazol-5-ylmethyl)-1H-pyrazole-3-carboxylic acid [1-(4-bromo-phenyl)-propyl]-amide]",< 300
